Experimental data: the supplement of paper PMC10307832

How the values were obtained:
Assay in all cases: relative viability (nuclei count vs DMSO), 5 days (fraction); higher = more cells survive
NCI-H838 = system: NCI-H838
Method in brief: (§1)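 Lung cancer cell lines, seeded in 1536-well plates, were treated the following day by pin tool with a single drug or with five library-drug doses (not always all listed) in √10 steps on top of a fixed anchor-drug dose. Cells were fixed and nuclei stained in one step after 5 days, and nuclei were counted. Relative viability is the nuclei count for treated wells divided by that for vehicle wells, reported as medians of duplicate plates.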

NCI-H650 = system: NCI-H650
Method in brief: as §1

NCI-H2087 = system: NCI-H2087
Method in brief: as §1

NCI-H596 = system: NCI-H596
Method in brief: as §1

LXF-289 = system: LXF-289
Method in brief: as §1

HCC-78 = system: HCC-78
Method in brief: as §1

BEN = system: BEN
Method in brief: as §1

NCI-H2342 = system: NCI-H2342
Method in brief: as §1

NCI-H322M = system: NCI-H322M
Method in brief: as §1

LC-2-ad = system: LC-2-ad
Method in brief: as §1

H3255 = system: H3255
Method in brief: as §1

NCI-H1666 = system: NCI-H1666
Method in brief: as §1

SK-MES-1 = system: SK-MES-1
Method in brief: as §1

UMC-11 = system: UMC-11
Method in brief: as §1

LU99A = system: LU99A
Method in brief: as §1

ChaGo-K-1 = system: ChaGo-K-1
Method in brief: as §1

HCC-15 = system: HCC-15
Method in brief: as §1

NCI-H358 = system: NCI-H358
Method in brief: as §1

LK-2 = system: LK-2
Method in brief: as §1

NCI-H661 = system: NCI-H661
Method in brief: as §1

PC-3 [JPC-3] = system: PC-3 [JPC-3]
Method in brief: as §1

NCI-H1944 = system: NCI-H1944
Method in brief: as §1

LCLC-97TM1 = system: LCLC-97TM1
Method in brief: as §1

NCI-H1651 = system: NCI-H1651
Method in brief: as §1

Clc1ccc(Nc2nnc(Cc3ccncc3)c3ccccc23)cc1 [Vatalanib] + Nc1ncn([C@H]2C[C@H](O)[C@@H](CO)O2)c(=O)n1 [Decitabine] (partner 2 µM)
relative viability (NCI-H838; first compound 0.04 µM): 0.435 | relative viability (NCI-H838; first compound 0.1265 µM): 0.467 | relative viability (NCI-H838; first compound 0.4 µM): 0.441 | relative viability (NCI-H838; first compound 1.265 µM): 0.483 | relative viability (NCI-H838; first compound 4 µM): 0.448 | relative viability (NCI-H650; first compound 0.04 µM): 0.292 | relative viability (NCI-H650; first compound 0.1265 µM): 0.337 | relative viability (NCI-H650; first compound 0.4 µM): 0.306 | relative viability (NCI-H650; first compound 1.265 µM): 0.327 | relative viability (NCI-H650; first compound 4 µM): 0.334 | relative viability (NCI-H2087; first compound 0.04 µM): 0.286 | relative viability (NCI-H2087; first compound 0.1265 µM): 0.292 | relative viability (NCI-H2087; first compound 0.4 µM): 0.273 | relative viability (NCI-H2087; first compound 1.265 µM): 0.298 | relative viability (NCI-H2087; first compound 4 µM): 0.275 | relative viability (NCI-H596; first compound 0.04 µM): 0.921 | relative viability (NCI-H596; first compound 0.1265 µM): 1.14 | relative viability (NCI-H596; first compound 0.4 µM): 1.22 | relative viability (NCI-H596; first compound 1.265 µM): 1.01 | relative viability (NCI-H596; first compound 4 µM): 1.02 | relative viability (LXF-289; first compound 0.04 µM): 0.368 | relative viability (LXF-289; first compound 0.1265 µM): 0.38 | relative viability (LXF-289; first compound 0.4 µM): 0.445 | relative viability (LXF-289; first compound 1.265 µM): 0.361 | relative viability (LXF-289; first compound 4 µM): 0.352 | relative viability (HCC-78; first compound 0.04 µM): 0.744 | relative viability (HCC-78; first compound 0.1265 µM): 0.723 | relative viability (HCC-78; first compound 0.4 µM): 0.773 | relative viability (HCC-78; first compound 1.265 µM): 0.719 | relative viability (HCC-78; first compound 4 µM): 0.684 | relative viability (BEN; first compound 0.04 µM): 0.644 | relative viability (BEN; first compound 0.1265 µM): 0.727 | relative viability (BEN; first compound 0.4 µM): 0.504 | relative viability (BEN; first compound 1.265 µM): 0.739 | relative viability (BEN; first compound 4 µM): 0.774 | relative viability (NCI-H2342; first compound 0.04 µM): 0.611 | relative viability (NCI-H2342; first compound 0.1265 µM): 0.781 | relative viability (NCI-H2342; first compound 0.4 µM): 0.718 | relative viability (NCI-H2342; first compound 1.265 µM): 0.736 | relative viability (NCI-H2342; first compound 4 µM): 0.641 | relative viability (NCI-H322M; first compound 0.04 µM): 0.769 | relative viability (NCI-H322M; first compound 0.1265 µM): 0.687 | relative viability (NCI-H322M; first compound 0.4 µM): 0.786 | relative viability (NCI-H322M; first compound 4 µM): 0.663 | relative viability (LC-2-ad; first compound 0.04 µM): 0.803 | relative viability (LC-2-ad; first compound 0.1265 µM): 0.753 | relative viability (LC-2-ad; first compound 0.4 µM): 0.768 | relative viability (LC-2-ad; first compound 1.265 µM): 0.776 | relative viability (LC-2-ad; first compound 4 µM): 0.861 | relative viability (H3255; first compound 0.04 µM): 0.526 | relative viability (H3255; first compound 0.1265 µM): 0.616 | relative viability (H3255; first compound 0.4 µM): 0.515 | relative viability (H3255; first compound 1.265 µM): 0.613 | relative viability (H3255; first compound 4 µM): 0.551 | relative viability (NCI-H1666; first compound 0.04 µM): 0.649 | relative viability (NCI-H1666; first compound 0.1265 µM): 0.755 | relative viability (NCI-H1666; first compound 0.4 µM): 0.593 | relative viability (NCI-H1666; first compound 1.265 µM): 0.672 | relative viability (NCI-H1666; first compound 4 µM): 0.785 | relative viability (SK-MES-1; first compound 0.04 µM): 0.358 | relative viability (SK-MES-1; first compound 0.1265 µM): 0.342 | relative viability (SK-MES-1; first compound 0.4 µM): 0.415 | relative viability (SK-MES-1; first compound 1.265 µM): 0.287 | relative viability (SK-MES-1; first compound 4 µM): 0.353 | relative viability (UMC-11; first compound 0.04 µM): 1.08 | relative viability (UMC-11; first compound 0.1265 µM): 0.624 | relative viability (UMC-11; first compound 0.4 µM): 0.462 | relative viability (UMC-11; first compound 1.265 µM): 0.563 | relative viability (UMC-11; first compound 4 µM): 0.619 | relative viability (LU99A; first compound 0.04 µM): 0.835 | relative viability (LU99A; first compound 0.1265 µM): 0.842 | relative viability (LU99A; first compound 0.4 µM): 0.962 | relative viability (LU99A; first compound 1.265 µM): 0.868 | relative viability (LU99A; first compound 4 µM): 0.84 | relative viability (ChaGo-K-1; first compound 0.04 µM): 0.494 | relative viability (ChaGo-K-1; first compound 0.1265 µM): 0.52 | relative viability (ChaGo-K-1; first compound 0.4 µM): 0.533 | relative viability (ChaGo-K-1; first compound 1.265 µM): 0.522 | relative viability (ChaGo-K-1; first compound 4 µM): 0.527 | relative viability (HCC-15; first compound 0.04 µM): 0.607 | relative viability (HCC-15; first compound 0.1265 µM): 0.689 | relative viability (HCC-15; first compound 0.4 µM): 0.716 | relative viability (HCC-15; first compound 1.265 µM): 0.627 | relative viability (HCC-15; first compound 4 µM): 0.665 | relative viability (NCI-H358; first compound 0.04 µM): 0.23 | relative viability (NCI-H358; first compound 0.1265 µM): 0.204 | relative viability (NCI-H358; first compound 0.4 µM): 0.246 | relative viability (NCI-H358; first compound 1.265 µM): 0.21 | relative viability (NCI-H358; first compound 4 µM): 0.234 | relative viability (LK-2; first compound 0.04 µM): 0.242 | relative viability (LK-2; first compound 0.1265 µM): 0.25 | relative viability (LK-2; first compound 0.4 µM): 0.297 | relative viability (LK-2; first compound 1.265 µM): 0.266 | relative viability (LK-2; first compound 4 µM): 0.319 | relative viability (NCI-H661; first compound 0.04 µM): 0.584 | relative viability (NCI-H661; first compound 0.1265 µM): 0.512 | relative viability (NCI-H661; first compound 0.4 µM): 0.544 | relative viability (NCI-H661; first compound 1.265 µM): 0.597 | relative viability (NCI-H661; first compound 4 µM): 0.524 | relative viability (PC-3 [JPC-3]; first compound 0.04 µM): 0.843 | relative viability (PC-3 [JPC-3]; first compound 0.1265 µM): 0.81 | relative viability (PC-3 [JPC-3]; first compound 0.4 µM): 0.663 | relative viability (PC-3 [JPC-3]; first compound 1.265 µM): 0.857 | relative viability (PC-3 [JPC-3]; first compound 4 µM): 0.777 | relative viability (NCI-H1944; first compound 0.04 µM): 0.427 | relative viability (NCI-H1944; first compound 0.1265 µM): 0.393 | relative viability (NCI-H1944; first compound 0.4 µM): 0.476 | relative viability (NCI-H1944; first compound 1.265 µM): 0.398 | relative viability (NCI-H1944; first compound 4 µM): 0.419 | relative viability (LCLC-97TM1; first compound 0.04 µM): 0.237 | relative viability (LCLC-97TM1; first compound 0.1265 µM): 0.19 | relative viability (LCLC-97TM1; first compound 0.4 µM): 0.25 | relative viability (LCLC-97TM1; first compound 1.265 µM): 0.224 | relative viability (LCLC-97TM1; first compound 4 µM): 0.232 | relative viability (NCI-H1651; first compound 0.04 µM): 0.518 | relative viability (NCI-H1651; first compound 0.1265 µM): 0.59 | relative viability (NCI-H1651; first compound 0.4 µM): 0.495 | relative viability (NCI-H1651; first compound 1.265 µM): 0.565 | relative viability (NCI-H1651; first compound 4 µM): 0.668
